# Entries after “also recorded” stand apart in the source; their conditions may differ. Where no end group is shown, it is not given here.
# Assays:
# WT mice = assay: Plasma insulin 5 minutes after i.p. glucose with peptides, wild type mice; format: in vivo, mouse
# Description: (§1) WT and DT mice were fasted for 16-h (Fast). As indicated, some mice were then administered an intraperitoneal injection of glucose (1 g/kg) with vehicle alone (BSA), GIP alone, Xenin-25 alone (Xen) or GIP plus Xenin-25 (G+X). […] Five minutes after injection of glucose, blood was collected and plasma prepared for insulin assays.
# (§2) WT and DT mice were fasted for 16-h (Fast). As indicated, some mice were then administered an intraperitoneal injection of glucose (1 g/kg) with vehicle alone (BSA), GIP alone, Xenin-25 alone (Xen) or GIP plus Xenin-25 (G+X). Five minutes later, blood was collected. Plasma was then prepared and assayed for insulin.
# (§3) Activation of parasympathetic neurons that innervate the pancreas can increase glucose-mediated insulin release in vivo. […] Wild type and GIP/DT mice were fasted overnight and then administered glucose in combination with GIP plus Xenin-25 by intraperitoneal injection. […] Blood was collected and plasma prepared 5 minutes after the glucose injection. […] Subsets of parasympathetic neurons that innervate the islets release vasoactive intestinal polypeptide (VIP) and pituitary adenylate cyclase activating peptide (PACAP) when activated. N-terminally truncated forms of PACAP [PACAP(6-38) or PACAP(6-27)] are competitive inhibitors of both VIP receptors (VPAC1 and VPAC2) as well as the PACAP-specific receptor Pac.
# GIP/DT mice = assay: Plasma insulin 5 minutes after i.p. glucose with peptides, GIP/DT mice; format: in vivo, mouse
# Description: as §1, §2, §3
# primary mouse islets = assay: Insulin release assay (static incubation) with primary mouse islets; format: cell-based; conditions: 100 nM peptide, 60 min, RIA
# Description: (§4) Primary mouse islets (panel A) or MIN6 cells (panel B) were incubated for 1-h in insulin assay buffer (KRB) containing 2.5 mM glucose. Islets or cells were then switched to KRB containing the indicated concentration of glucose with or without 100 nM GIP, GLP-1, Xenin-8, or Xenin-25. Sixty-minutes later, assay buffer was collected and the amount of insulin released determined by RIA.
# Primary mouse islets were incubated for 1-h in insulin assay buffer (KRB) containing 2.5 mM glucose. Islets were then switched to KRB containing the indicated concentration of glucose with or without 100 nM Xenin-8. Sixty-minutes later, assay buffer was collected and the amount of insulin released determined by RIA.
# (§5) Insulin release assays (static incubations) were conducted at the indicated concentration of glucose with islets isolated from WT C57BL/6J mice (Panel A; 5 islets per sample; 6 samples per condition) or Min6 cells (Panels B, C; 4 wells per condition). 100 nM GIP, GLP-1, or Xenin-25 (Xen) was added to some samples in Panels A, B. Peptides were added at the indicated concentrations in Panels C.
# Experiments were conducted to determine whether Xenin-25 acts directly on pancreatic islet beta cells (FIG. 23). Islets were isolated from wild type C57BL/6J mice and then subjected to insulin release assays (FIG. 23A) in the presence of different concentrations of glucose. […]
# MIN6 cells = assay: Insulin release assay with MIN6 cells; format: cell-based; conditions: for glucose-stimulated insulin release: MIN6 cells, 100 nM peptide, 60 min
# Description: as §4, §5
# Next, studies were performed with MIN6 cells, a well-characterized, glucose-responsive, insulin-producing cell line. First, insulin release assays were conducted in the presence of peptides. […] Second, Min6 cells were treated with GLP-1, GIP, or Xenin-25 and Western blots conducted to determine whether the Xenin-25 increased MAPK signaling. […] Finally, insulin release assays were conducted in the presence of GIP plus Xenin-25.
# [1] = tested on: MAPK signaling in Min6 Cells; assay: Western blot for phosphorylated (active) MAPK in Min6 cells; format: cell-based; conditions: 10 minutes, 7.5 mM glucose, 100 nM peptide
# NONcNZO10/Ltj mice [2] = assay: Blood glucose after i.p. glucose plus peptides in mouse model of human T2DM; format: in vivo; conditions: glucose 1 g/kg i.p.
# Description: Panel A depicts blood glucose levels in 5-week old pre-diabetic mice. Panel B depicts blood glucose levels in 16-week old diabetic mice. Panel C depicts the area under the curve for data in panels A and B as well as for a third experiment using 18-week old mice. * indicates P value<0.05 versus mice of the same age receiving BSA alone.
# At the age indicated in FIG. 21, mice were fasted for 16-h. Blood glucose levels were measured before and at the indicated time after an intraperitoneal injection of glucose (1 g/kg) plus vehicle alone (BSA), GIP alone, Xenin-25 alone (Xen) or GIP plus Xenin-25 (GIP+Xen).
# NONcNZO10/Ltj mice [3] = assay: Plasma insulin after i.p. glucose plus peptides in mouse model of human T2DM; format: in vivo; conditions: 8-week old pre-diabetic mice (FIG. 22A); 15 minutes after i.p. glucose 1 g/kg
# Description: Panel A depicts plasma insulin levels in 8-week old pre-diabetic mice.
# NONcNZO10/Ltj mice were fasted for 16-h. Blood was collected before (0) or 15 minutes after an intraperitoneal injection of glucose (1 g/kg) in the presence of vehicle alone (BSA), GIP alone, Xenin-25 alone (Xen) or GIP plus Xenin-25 (GIP+Xen). […] (FIG. 22A).
# perfused rat pancreas = conditions: supraphysiologic concentrations; cited from earlier work
molecule,measurement,setting,value
CN1[C@@H]2CC[C@H]1C[C@@H](OC(=O)C(CO)c1ccccc1)C2 (stereo partly drawn) [atropine],effect on insulin release with GIP plus Xenin-25,"WT mice; wild type mice, atropine i.p. 15 minutes before glucose",no statistically significant effect on insulin release
"PACAP(6-38): N-terminally truncated PACAP; competitive inhibitor of VIP receptors (VPAC1 and VPAC2) and PACAP-specific receptor (FTDSYSRYRKQMAVKKYLAAVLGKRYKQRVKNK; ends and bridges not checked; UniProt P18509 137-169, looked up, fragment)",inhibition of Xenin-25 potentiation of GIP-mediated increase in plasma insulin,"GIP/DT mice; given along with peptides (FIG. 25C), mouse line not stated",did not inhibit Xenin-25 potentiation of the GIP-mediated increase in plasma insulin levels
glucose-dependent insulinotropic polypeptide [GIP],glucose-stimulated insulin release,primary mouse islets,insulin release is potentiated; also recorded: potentiate glucose-stimulated insulin release
same,glucose-stimulated insulin release,MIN6 cells,glucose-stimulated insulin release was amplified; also recorded: potentiate glucose-stimulated insulin release
same,"insulin release, GIP with/without Xenin-25","MIN6 cells; Min6 cells, peptides at indicated concentrations (FIG. 23C)",dose-dependent increase in insulin release
same,phosphorylation of MAPK,[1],profound increases in phosphorylation of MAPK
same,increase in plasma insulin levels,"WT mice; WT mice, 5 minutes after i.p. glucose 1 g/kg",greater than 3 fold
same,plasma insulin levels,"GIP/DT mice; GIP/DT mice, 5 minutes after i.p. glucose 1 g/kg",much smaller increase in plasma insulin levels than was observed in WT mice
same,blood glucose levels after i.p. glucose,NONcNZO10/Ltj mice [2]; 5-week old pre-diabetic mice,does not significantly improve blood glucose levels
same,blood glucose levels after i.p. glucose,NONcNZO10/Ltj mice [2]; 16-week old diabetic mice,modest improvement in blood glucose levels
same,plasma insulin levels,NONcNZO10/Ltj mice [3],little effect on plasma insulin levels
"Xenin: xenin protein, form (xenin-25 or fragment) not specified at the place (MLTKFETKSARVKGLSFHPKRPWIL; Xenin; UniProt P53621 1-25, looked up)",glucose-stimulated insulin release,perfused rat pancreas,increased glucose-stimulated insulin release
"glucagon like peptide 1 (HAEGTFTSDVSSYLEGQAAKEFIAWLVKGR; ends and bridges not checked; UniProt P01275 98-127, looked up) [GLP-1, incretin hormone; synthetic GLP-1(7-36) used in vivo]",glucose-stimulated insulin release,primary mouse islets,insulin release is potentiated; also recorded: potentiate glucose-stimulated insulin release
same,glucose-stimulated insulin release,MIN6 cells,glucose-stimulated insulin release was amplified; also recorded: potentiate glucose-stimulated insulin release
same,phosphorylation of MAPK,[1],profound increases in phosphorylation of MAPK

# From patent US20140142035A1, “METHODS AND COMPOSITIONS FOR MODULATING INSULIN REGULATION” (The Washington University, priority 2010, published 2014)
